US5117052A, “Physiologically active substances, benastatins A and B, and production and use thereof” (priority 1990, dated 1992)
Values after ≈ are worked out from the molar mass of the structure shown.

Assays:
glutathione transferase = biological target: T1, glutathione transferase (Rattus norvegicus, UniProt P04905); experiment: Glutathione transferase inhibition activity (3,4-dichloronitrobenzene/glutathione, absorption at 345 nm); format: biochemical
T1 construct: obtained from a homogenate of rat liver; from tissue; host or cells: rat liver homogenate, partially purified by DEAE-cellulose column and ammonium sulfate salting-out
Experimental: The glutathione transferase inhibition activity was determined by a modified method based on the known method described in Biochemical and Biophysical Research Communications, 112, 980-985 (1983).
A test tube was charged with a solution mixture consisting of (a) 0.1 ml of 90 mM glutathione (reduction type), (b) 0.05 ml of 20 mM 3,4-dichloronitrobenzene, (c) 1.7 ml of 0.1M potassium phosphate buffer solution (pH 7.4) and (d) 0.1 ml of an aqueous solution containing the test compound. The solution mixture was heated to 37° C. for 3 minutes, and admixed with 0.05 ml of a glutathione transferase solution to effect a reaction at 37° C. for 30 minutes. The glutathione transferase solution employed was one which had been obtained from a homogenate of rat liver and which had been patially refined by means of a DEAE-cellulose column and of salting out-operation with ammonium sulfate.
After the completion of the reaction, the sample was measured for the light absorption (a) at 345 nm. At the same time, a control sample which was free of the test compound and which contained only the buffer solution was measured for the light absorption (b) at 345 nm.
The glutathione transferase inhibition activity was determined according to the formula: […]
IC50, which is the concentration of a test compound required for 50% inhibition, was recorded.

[1] = test system: spleen cells (LPS lymphocyte blast formation reaction); experiment: Suppression of LPS-induced lymphocyte blast formation, [3H]-thymidine uptake (Test 2); format: cell-based, BALB/c mouse; settings: Mus musculus, LPS 100 μg/ml, 72 hours, read-out: IC50, 50% suppression of lymphocyte blast formation (LPS)
Experimental: (§1) A pharmacological test was made about a suppression activity of benastatins on the lymphocyte blast formation reaction.
(§2) In this test, use was made of an RPMI 1640 culture medium supplemented with 20% bovin fetus serum, 25 mM Hepes buffer, 100 μg/ml streptomycin and 100 units/ml penicillin G. The cultivation was effected by using microplate (COSTAR) with a flat bottom and with 96 wells. As mitogens, use was made of lipopolysaccharide (LPS) and concanavalin A (Con A) at concentrations of 100 and 5 μg/ml, respectively.
(§3) After spleen cells were taken out from BALB/c mouse (female, 25 weeks old), a unicellular suspension of the spleen cells was prepared, and then subjected to a hyper shock treatment to remove erythrocytes therefrom.
(§4) Each well was charged with 0.2 ml of a sample which contained 2×10^5 spleen cells and the test compound at a predetermined concentration. The cultivation was conducted for 72 hours. Before 8 hours from the completion of cultivation, each well was further charged with 37 KBq of [^3 H]-thymidine to determine the amount of the thymidine taken into the cells. […]

[2] = test system: spleen cells (Con A lymphocyte blast formation reaction); experiment: Suppression of Con A-induced lymphocyte blast formation, [3H]-thymidine uptake (Test 2); format: cell-based, BALB/c mouse; settings: Mus musculus, Con A 5 μg/ml, 72 hours, read-out: IC50, 50% suppression of lymphocyte blast formation (Con A)
Experimental: as §1, §2, §3, §4

mouse = experiment: Toxicity on administration to the abdominal cavity; format: in vivo; settings: 100 mg/kg
Text: Benastatins A and B were each administered to the abdominal cavity of a mouse to examine the toxicity thereof.

[3] = test system: Bacillus cereus ATCC10702; experiment: Agar dilution assay, minimum growth inhibition concentration; format: cell-based
Experimental: (§5) The minimum of microorganism growth inhibition concentrations of benastatins A and B were determined for various bacteria, east and fungi according to a conventional agar dilution assay method. It will be seen from Table 1 that benastatins A and B have a satisfactory antimicrobial activity, particularly against gram-positive bacteria, etc.

[4] = test system: Bacillus subtilis NRRL B-558; experiment: as above; format: cell-based; settings: NRRLB558
Experimental: as §5

Cochliobolus miyabeanus = experiment: as above; format: cell-based; settings: Bipolaris oryzae
Experimental: as §5

[5] = test system: Corynebacterium bovis 1810; experiment: as above; format: cell-based
Experimental: as §5

[6] = test system: Cryptococcus neoformans F-10; experiment: as above; format: cell-based; settings: F10
Experimental: as §5

Micrococcus luteus FDA16 = experiment: as above; format: cell-based
Experimental: as §5

[7] = test system: Staphylococcus aureus MS9610; experiment: as above; format: cell-based
Experimental: as §5

[8] = test system: Staphylococcus aureus Smith; experiment: as above; format: cell-based
Experimental: as §5

[9] = test system: Staphylococcus aureus No. 5 (MRSA); experiment: as above; format: cell-based; settings: read-out: Minimum growth-inhibition concentration
[10] = test system: Staphylococcus aureus No. 17 (MRSA); experiment: as above; format: cell-based; settings: read-out: Minimum growth-inhibition concentration
Escherichia coli NIHJ = experiment: as above; format: cell-based; settings: Escherichia coli NIHJ; read-out: Minimum growth-inhibition concentration
[11] = test system: Shigella dysenteriae JS11910; experiment: as above; format: cell-based; settings: JS11910, read-out: Minimum growth-inhibition concentration
Salmonella typhi T-63 = experiment: as above; format: cell-based; settings: Salmonella enterica
Proteus rettgeri GN311 = experiment: as above; format: cell-based; settings: Providencia rettgeri; Proteus rettgeri GN311; read-out: Minimum growth-inhibition concentration
[12] = test system: Pseudomanas aeruginosa A3; experiment: as above; format: cell-based; settings: Pseudomanas aeruginosa A3; read-out: Minimum growth-inhibition concentration
[13] = test system: Klebsiella pneumoniae PCI602; experiment: as above; format: cell-based; settings: Klebsiella pneumoniae PCI602; read-out: Minimum growth-inhibition concentration
[14] = test system: Mycabacterium smegmatis ATCC607; experiment: as above; format: cell-based; settings: Mycabacterium smegmatis ATCC607; read-out: Minimum growth-inhibition concentration
Candida tropicalis F-1 = experiment: as above; format: cell-based; settings: F1; Candida tropicalis F-1; read-out: Minimum growth-inhibition concentration
[15] = test system: Saccharomyces cerevisiae F-7; experiment: as above; format: cell-based; settings: F7; Saccharomyces cerevisiae F-7; read-out: Minimum growth-inhibition concentration
Pyricularia oryzae = experiment: microbe, parasite or virus in culture; format: cell-based; settings: read-out: Minimum growth-inhibition concentration
Aspergillus niger F-16 = experiment: Agar dilution assay, minimum growth inhibition concentration; format: cell-based; settings: F16; Aspergillus niger F-16; read-out: Minimum growth-inhibition concentration

T1 sequence (P04905 2-218 limits assumed): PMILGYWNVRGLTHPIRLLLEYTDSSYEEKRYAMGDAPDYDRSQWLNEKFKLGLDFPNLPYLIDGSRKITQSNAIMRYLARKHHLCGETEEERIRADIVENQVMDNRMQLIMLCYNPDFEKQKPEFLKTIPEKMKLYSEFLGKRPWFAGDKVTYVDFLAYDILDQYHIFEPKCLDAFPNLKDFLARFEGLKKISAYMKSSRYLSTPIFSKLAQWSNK

CCCCCc1cc2ccc3c(O)c4c(cc3c2c(O)c1C(=O)O)C(C)(C)c1cc(O)cc(O)c1C4=O [Benastatin A, benastatin A]
IC50 (glutathione transferase): 4.99 µM
IC50 [1]: 7.7 µg/mL (≈ 15.4 µM)
IC50 [2]: 7.3 µg/mL (≈ 14.6 µM)
Toxicity (mouse): No toxicity was observed
MIC [3]: 3.12 µg/mL (≈ 6.23 µM)
MIC [4]: 3.12 µg/mL (≈ 6.23 µM)
MIC (Cochliobolus miyabeanus): > 25 µg/mL
MIC [5]: 3.12 µg/mL (≈ 6.23 µM)
MIC [6]: 50 µg/mL (≈ 99.9 µM)
MIC (Micrococcus luteus FDA16): 3.12 µg/mL (≈ 6.23 µM)
MIC [7]: 3.12 µg/mL (≈ 6.23 µM)
MIC [8]: 3.12 µg/mL (≈ 6.23 µM)
MIC [9]: 3.12 µg/mL (≈ 6.23 µM)
MIC [10]: 3.12 µg/mL (≈ 6.23 µM)
MIC (Escherichia coli NIHJ): 100 µg/mL (≈ 200 µM)
MIC [11]: > 50 µg/mL
MIC (Salmonella typhi T-63): > 50 µg/mL
MIC (Proteus rettgeri GN311): 50 µg/mL (≈ 99.9 µM)
MIC [12]: > 50 µg/mL
MIC [13]: > 50 µg/mL
MIC [14]: 50 µg/mL (≈ 99.9 µM)
MIC (Candida tropicalis F-1): > 50 µg/mL
MIC [15]: > 100 µg/mL
MIC (Pyricularia oryzae): 50 µg/mL (≈ 99.9 µM)
MIC (Aspergillus niger F-16): > 50 µg/mL
Solubility in organic solvents (Solubility; dimethyl sulfoxide, methanol, acetone, ethyl acetate): soluble
Solubility in water (Solubility; water): insoluble
